Publication PMC3856494, “Radiofluorination and biological evaluation of N-aryl-oxadiazolyl-propionamides as potential radioligands for PET imaging of cannabinoid CB2 receptors” (Organic and Medicinal Chemistry Letters, 2013)
Like-named read-outs stand apart in the source and are kept apart here. Values belong to the molecule of their own block, whether it stands above or below them.

Experiments:
[1] = Ex vivo metabolite studies (radio-HPLC of plasma and brain extracts); format: in vivo, CD1 mice; settings: mice
Description: (§1) [^18F]1 and [^18F]2 (100 to 150 MBq, 250 to 450 GBq/μmol in 150 μL NaCl 0.9%/10% EtOH) were injected via the tail vein in CD1 male mice (10 to 12 weeks old, 20 to 25 g). Blood and urine samples were obtained at 30 and 60 min p.i. (n = 3 per time point). Twofold extractions of plasma and brain samples (n = 3) were performed using ice-cold MeCN according to the standard protocol established in our group (see [47, 48]). Briefly, plasma samples were obtained by centrifugation of the blood at 4,000×g at 4°C for 10 min, and brain samples were homogenized in ice-cold 50 mM Tris–HCl (pH = 7.4). The samples were vortexed, incubated on ice, and centrifuged at 10,000×g for 3 min. Supernatants were collected, and the precipitates were re-dissolved in ice-cold MeCN for the second extraction. The supernatants from the two extractions were combined, concentrated under a gentle argon stream at 65°C, and analyzed by radio-TLC and gradient analytical HPLC (see ‘Radiochemistry’ section). Aliquots from each extraction supernatant and the precipitates were also taken and quantified by γ counting (Wallac Wizard 1470, Perkin Elmer Inc., Waltham, MA, USA) along with the respective aliquots of intact plasma samples and brain homogenates. A moderate recovery of radioactivity was obtained from plasma samples and brain homogenates (60% to 70%). Radiometabolites of [^18F]17 in the plasma, spleen, and brain were assessed at 30 and 60 min p.i.

[2] = In vivo metabolism of [18F]17 and uptake of [18F]10; design: species or system CD1 mice; settings: for tissue uptake at 0.5 h / tissue uptake at 1 h: mouse, iv, after i.v. 100 to 200 kBq [18F]17, female CD1 mice
Description: The total amount of activity measured in, e.g. the plasma at particular times p.i. also depends on the kinetics of the excretion of radiotracer/radiometabolites. For [^18F]2, this is more pronounced than for [^18F]1 with unmetabolized [^18F]2 accounting for only 2% of the total radioactivity in the plasma at 30 min p.i. At this time, more than 90% of the recovered activity in plasma samples for [^18F]2 consisted of the single radiometabolite M1b. As this value decreases only slightly up to 60 min p.i. (88%), M1b can be assumed as a rather metabolically stable compound. This radiometabolite of [^18F]2 probably corresponds to the N-aryl-oxadiazolyl-propanoic acid resulting from enzymatic hydrolysis of the amide bond of 2[40]. […] In order introduce ^18F into the molecule, the carbon acid moiety was protected as a methyl ester resulting in the labelled compound [^18F]17 (Scheme 5). It was expected that after injection of this compound in mice, the ester will be converted into the free acid [^18F]10. […] After intravenous injection of [^18F]17 in CD1 mice, samples of the plasma, brain, and spleen were analyzed at 30 and 60 min p.i. (Table 5).
as §1

SMILES: CCn1c2ccccc2c2cc(NC(=O)CCc3nc(-c4ccc([N+](C)(C)C)cc4Br)no3)ccc21.[I-] [Compound 13, 3-Bromo-4-(5-(3-((9-ethyl-9H-carbazol-3-yl)amino)-3-oxopropyl)-1,2,4-oxadiazol-3-yl)-N,N,N-trimethylbenzenaminium iodide]
melting point: 109 °C

SMILES: COC(=O)CCc1nc(-c2ccc(F)cc2Br)no1 [Compound 17, Methyl-3-(3-(2-bromo-4-fluorophenyl)-1,2,4-oxadiazol-5-yl)propanoate]
melting point: 39 °C

SMILES: COC(=O)CCc1nc(-c2ccc([N+](C)(C)C)cc2Br)no1.[I-] [Compound 18, 3-Bromo-4-(5-(3-methoxy-3-oxopropyl)-1,2,4-oxadiazol-3-yl)-N,N,N-trimethylbenzenaminium iodide]
melting point: 119 °C

SMILES: Cc1ccc(S(=O)(=O)OCCn2c3ccccc3c3cc(NC(=O)CCc4nc(-c5ccc(F)cc5Br)no4)ccc32)cc1 [Compound 15, [2-(3-{3-[3-(2-Bromo-4-fluorophenyl)-1,2,4-oxadiazol-5-yl]propanamido}-9H-carbazol-9-yl)ethyl] 4-methylbenzenesulfonate]
melting point: 136 °C

Other lines, results leading:

Percentage of total activity in brain samples, 30 min p.i. ([1]; brain homogenate extract, 30 min p.i. of [18F]1 or [18F]2, radio-HPLC): 8% | Percentage of total activity in brain samples, 60 min p.i. ([1]; brain homogenate extract, 60 min p.i. of [18F]1 or [18F]2, radio-HPLC): 51% | Relative percentage of intact tracer and radiometabolites, Plasma 60 min p.i. ([1]; plasma, 60 min p.i. of [18F]1 or [18F]2, radio-HPLC): 88% | tissue uptake at 0.5 h ([2]; brain, read-out: uptake, Brain, 30 min p.i.): 0.28 %ID/g | tissue uptake at 1 h ([2]; brain, read-out: uptake, Brain, 60 min p.i.): 0.29 %ID/g | tissue uptake at 0.5 h ([2]; plasma, read-out: uptake, Plasma, 30 min p.i.): 18.2 %ID/g | tissue uptake at 1 h ([2]; plasma, read-out: uptake, Plasma, 60 min p.i.): 15.4 %ID/g | tissue uptake at 0.5 h ([2]; spleen, read-out: uptake, Spleen, 30 min p.i.): 1.35 %ID/g | tissue uptake at 1 h ([2]; spleen, read-out: uptake, Spleen, 60 min p.i.): 1.31 %ID/g | Further metabolic transformation in brain and spleen samples ([2]; up to 60 min p.i. of [18F]17, CD1 mice): no further metabolic transformation
SMILES: O=C(O)CCc1nc(-c2ccc([18F])cc2Br)no1 [[^18F]10]

Conversion to free acid [18F]10 in plasma samples ([2]; plasma, 30 min p.i., i.v., CD1 mice): completely converted
SMILES: COC(=O)CCc1nc(-c2ccc([18F])cc2Br)no1 [[^18F]17]
